Blank lines part the entries; values can stand above or below the molecule they belong to. Activity calls are given as the source filed them. The rule behind the calls is not given here.
Assays:
[1] = molecular target: Metabotropic glutamate receptor 7 (Rattus norvegicus, UniProt P35400); assay: Positive allosteric modulation of rat mGluR7
[2] = (§1) Positive allosteric modulation of rat mGluR8
Rattus norvegicus [3] = species: Rattus norvegicus; assay: as §1
Rattus norvegicus [4] = species: Rattus norvegicus; assay: Positive allosteric modulation of rat mGluR8 in presence of L-AP4 Max relative to control; settings: filed as positive allosteric modulator
[5] = molecular target: T1, Metabotropic glutamate receptor 8 (Homo sapiens, UniProt O00222); assay: Positive allosteric modulation of mGluR8 (unknown origin)
T1 sequence (O00222 whole entry): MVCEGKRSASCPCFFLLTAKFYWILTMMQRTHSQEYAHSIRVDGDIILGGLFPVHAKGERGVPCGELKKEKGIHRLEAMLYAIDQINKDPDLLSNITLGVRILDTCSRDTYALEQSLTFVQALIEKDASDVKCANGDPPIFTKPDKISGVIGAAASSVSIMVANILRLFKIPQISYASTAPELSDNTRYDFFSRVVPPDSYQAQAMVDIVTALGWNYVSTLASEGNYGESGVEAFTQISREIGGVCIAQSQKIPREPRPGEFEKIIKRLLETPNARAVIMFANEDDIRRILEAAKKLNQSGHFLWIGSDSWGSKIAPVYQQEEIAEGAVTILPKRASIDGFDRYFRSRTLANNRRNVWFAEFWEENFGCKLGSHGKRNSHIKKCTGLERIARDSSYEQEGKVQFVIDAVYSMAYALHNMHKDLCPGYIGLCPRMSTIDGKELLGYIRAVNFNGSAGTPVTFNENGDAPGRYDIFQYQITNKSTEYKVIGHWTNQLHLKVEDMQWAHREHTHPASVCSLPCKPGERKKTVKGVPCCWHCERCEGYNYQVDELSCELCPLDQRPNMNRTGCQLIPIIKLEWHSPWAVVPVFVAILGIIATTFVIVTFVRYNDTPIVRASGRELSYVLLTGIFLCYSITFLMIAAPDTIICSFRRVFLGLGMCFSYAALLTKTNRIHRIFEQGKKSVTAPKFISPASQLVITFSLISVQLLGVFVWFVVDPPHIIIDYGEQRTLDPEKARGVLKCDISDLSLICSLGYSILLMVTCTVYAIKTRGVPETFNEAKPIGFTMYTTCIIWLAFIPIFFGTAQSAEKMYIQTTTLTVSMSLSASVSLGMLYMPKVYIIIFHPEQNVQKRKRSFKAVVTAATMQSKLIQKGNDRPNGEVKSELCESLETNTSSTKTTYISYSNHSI

Mus musculus [6] = assay: Effect on locomotor response in Grm7 knockout mouse assessed as decrease in distance travelled in an open field at 30 mg/kg, ip; type: functional, organism-based
[7] = Unbound fraction in rat plasma; type: ADME, cell-free
Mus musculus [8] = assay: Anxiolytic activity in anxiety induced wild type mouse model assessed as reduction in marbles burying at 30 mg/kg; type: functional, organism-based
[9] = molecular target: T2, Metabotropic glutamate receptor 2 (Homo sapiens, UniProt Q14416); assay: Positive allosteric modulation of human mGluR2
T2 sequence (Q14416 whole entry): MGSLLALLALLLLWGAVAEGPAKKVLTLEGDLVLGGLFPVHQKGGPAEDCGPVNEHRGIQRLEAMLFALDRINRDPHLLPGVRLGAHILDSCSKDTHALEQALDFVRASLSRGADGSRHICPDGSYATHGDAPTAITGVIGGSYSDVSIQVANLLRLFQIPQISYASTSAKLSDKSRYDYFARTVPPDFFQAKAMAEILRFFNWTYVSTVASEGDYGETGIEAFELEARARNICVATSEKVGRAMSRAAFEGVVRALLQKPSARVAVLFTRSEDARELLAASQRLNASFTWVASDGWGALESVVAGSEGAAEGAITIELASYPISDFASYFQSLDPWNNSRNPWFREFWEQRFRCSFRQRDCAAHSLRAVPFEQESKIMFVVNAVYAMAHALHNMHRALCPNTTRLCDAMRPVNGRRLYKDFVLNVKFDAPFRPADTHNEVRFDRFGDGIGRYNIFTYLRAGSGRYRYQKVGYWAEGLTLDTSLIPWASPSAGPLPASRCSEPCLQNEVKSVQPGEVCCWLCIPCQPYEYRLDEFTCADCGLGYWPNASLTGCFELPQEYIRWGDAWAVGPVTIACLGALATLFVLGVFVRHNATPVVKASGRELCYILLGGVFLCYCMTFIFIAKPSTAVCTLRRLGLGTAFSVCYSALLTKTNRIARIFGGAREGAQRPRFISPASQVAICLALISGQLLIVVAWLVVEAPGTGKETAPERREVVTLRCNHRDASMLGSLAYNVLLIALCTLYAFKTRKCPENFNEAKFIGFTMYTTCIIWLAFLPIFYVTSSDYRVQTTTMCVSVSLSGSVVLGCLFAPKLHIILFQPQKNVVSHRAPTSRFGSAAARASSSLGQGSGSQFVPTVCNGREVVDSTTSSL

[10] = molecular target: T3, Metabotropic glutamate receptor 3 (Homo sapiens, UniProt Q14832); assay: Positive allosteric modulation of human mGluR3
T3 sequence (Q14832 whole entry): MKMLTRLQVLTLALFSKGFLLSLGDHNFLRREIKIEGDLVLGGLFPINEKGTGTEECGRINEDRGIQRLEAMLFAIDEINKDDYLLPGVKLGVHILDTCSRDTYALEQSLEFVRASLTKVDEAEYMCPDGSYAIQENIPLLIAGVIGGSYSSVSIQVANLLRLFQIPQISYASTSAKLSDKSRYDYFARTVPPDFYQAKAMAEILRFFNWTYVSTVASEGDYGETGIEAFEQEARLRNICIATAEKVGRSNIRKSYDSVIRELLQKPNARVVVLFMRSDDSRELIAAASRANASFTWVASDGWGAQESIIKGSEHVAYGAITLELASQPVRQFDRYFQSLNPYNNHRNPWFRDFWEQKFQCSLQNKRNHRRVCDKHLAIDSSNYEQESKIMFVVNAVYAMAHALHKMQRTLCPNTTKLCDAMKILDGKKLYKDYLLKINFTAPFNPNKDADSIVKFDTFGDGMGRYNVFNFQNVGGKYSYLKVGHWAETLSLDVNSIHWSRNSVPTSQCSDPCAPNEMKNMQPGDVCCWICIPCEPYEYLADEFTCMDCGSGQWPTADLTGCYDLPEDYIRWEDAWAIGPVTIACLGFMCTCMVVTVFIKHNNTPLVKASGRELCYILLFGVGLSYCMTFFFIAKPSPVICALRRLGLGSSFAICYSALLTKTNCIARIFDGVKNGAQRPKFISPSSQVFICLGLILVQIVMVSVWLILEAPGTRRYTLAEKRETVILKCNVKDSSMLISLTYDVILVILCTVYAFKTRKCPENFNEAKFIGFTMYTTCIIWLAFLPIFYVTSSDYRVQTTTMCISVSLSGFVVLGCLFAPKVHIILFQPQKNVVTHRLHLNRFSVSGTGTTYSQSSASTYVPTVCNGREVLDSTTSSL

[11] = molecular target: T4, Metabotropic glutamate receptor 1 (Homo sapiens, UniProt Q13255); assay: Positive allosteric modulation of human mGluR1
[12] = molecular target: T1, Metabotropic glutamate receptor 8; assay: Positive allosteric modulation of human mGluR8
[13] = Unbound fraction in mouse plasma; type: ADME, cell-free
[14] = molecular target: Metabotropic glutamate receptor 4 (Homo sapiens, UniProt Q14833); assay: Positive allosteric modulation of human mGluR4
Mus musculus [15] = assay: Effect on locomotor response in wild type mouse assessed as decrease in distance travelled in an open field at 30 mg/kg, ip measured over 60 mins; type: functional, organism-based
[16] = molecular target: T5, Metabotropic glutamate receptor 5 (Homo sapiens, UniProt P41594); assay: Positive allosteric modulation of human mGluR5
T5 sequence (P41594 whole entry): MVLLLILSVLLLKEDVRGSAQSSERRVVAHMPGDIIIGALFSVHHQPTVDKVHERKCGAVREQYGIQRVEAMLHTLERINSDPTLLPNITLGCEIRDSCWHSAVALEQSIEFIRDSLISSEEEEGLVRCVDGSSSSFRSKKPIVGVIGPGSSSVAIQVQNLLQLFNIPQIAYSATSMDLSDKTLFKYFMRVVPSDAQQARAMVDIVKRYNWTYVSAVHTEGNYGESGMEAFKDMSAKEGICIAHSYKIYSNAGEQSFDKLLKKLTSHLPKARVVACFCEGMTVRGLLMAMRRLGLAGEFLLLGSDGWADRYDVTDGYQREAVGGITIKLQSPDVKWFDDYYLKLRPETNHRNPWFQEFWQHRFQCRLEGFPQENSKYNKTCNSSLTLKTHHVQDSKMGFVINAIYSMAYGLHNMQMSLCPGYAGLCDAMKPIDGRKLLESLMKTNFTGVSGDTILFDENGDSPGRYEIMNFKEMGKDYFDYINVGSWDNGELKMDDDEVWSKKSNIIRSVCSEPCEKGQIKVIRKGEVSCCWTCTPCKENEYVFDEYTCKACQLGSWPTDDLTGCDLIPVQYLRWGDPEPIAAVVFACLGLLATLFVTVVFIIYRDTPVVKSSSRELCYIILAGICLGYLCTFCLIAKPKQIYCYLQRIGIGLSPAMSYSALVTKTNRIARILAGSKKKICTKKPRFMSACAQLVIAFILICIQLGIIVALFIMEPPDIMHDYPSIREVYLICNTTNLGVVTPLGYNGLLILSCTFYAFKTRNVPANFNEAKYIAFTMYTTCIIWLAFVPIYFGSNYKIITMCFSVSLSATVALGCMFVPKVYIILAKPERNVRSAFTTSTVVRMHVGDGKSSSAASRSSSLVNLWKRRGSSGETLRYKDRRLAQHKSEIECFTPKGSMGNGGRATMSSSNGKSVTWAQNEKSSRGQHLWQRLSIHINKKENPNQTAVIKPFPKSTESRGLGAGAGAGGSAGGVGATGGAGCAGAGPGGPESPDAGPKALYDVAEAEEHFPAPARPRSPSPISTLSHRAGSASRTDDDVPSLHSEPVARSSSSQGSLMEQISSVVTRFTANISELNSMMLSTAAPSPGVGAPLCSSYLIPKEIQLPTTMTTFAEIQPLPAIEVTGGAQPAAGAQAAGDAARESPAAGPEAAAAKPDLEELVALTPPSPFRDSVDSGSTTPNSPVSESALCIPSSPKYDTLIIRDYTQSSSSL

[17] = Unbound fraction in rat brain; type: ADME, tissue-based
[18] = molecular target: Sigma non-opioid intracellular receptor 1 (Homo sapiens) (UniProt Q99720); assay: Inhibition of human sigma-1 receptor at 10 uM relative to control
Chain of Sigma non-opioid intracellular receptor 1 (Homo sapiens) (Q99720 whole entry): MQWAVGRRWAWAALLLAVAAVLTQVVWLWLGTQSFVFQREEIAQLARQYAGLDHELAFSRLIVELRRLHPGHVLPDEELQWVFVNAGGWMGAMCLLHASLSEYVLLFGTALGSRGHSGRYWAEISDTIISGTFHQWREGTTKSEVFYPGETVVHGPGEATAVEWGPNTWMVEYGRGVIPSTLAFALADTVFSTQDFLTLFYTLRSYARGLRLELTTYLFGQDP

[19] = Unbound fraction in mouse brain; type: ADME, tissue-based
[20] = Unbound brain-to-plasma concentration ratio in rat; type: ADME
[21] = molecular target: T3, Metabotropic glutamate receptor 3; assay: Positive allosteric modulation of mGluR3 (unknown origin)
[22] = molecular target: T4, Metabotropic glutamate receptor 1; assay: Positive allosteric modulation of mGluR1 (unknown origin)
[23] = molecular target: T2, Metabotropic glutamate receptor 2; assay: Positive allosteric modulation of mGluR2 (unknown origin)
[24] = molecular target: T5, Metabotropic glutamate receptor 5; assay: Positive allosteric modulation of mGluR5 (unknown origin)

Chain of Metabotropic glutamate receptor 7 (P35400 whole entry): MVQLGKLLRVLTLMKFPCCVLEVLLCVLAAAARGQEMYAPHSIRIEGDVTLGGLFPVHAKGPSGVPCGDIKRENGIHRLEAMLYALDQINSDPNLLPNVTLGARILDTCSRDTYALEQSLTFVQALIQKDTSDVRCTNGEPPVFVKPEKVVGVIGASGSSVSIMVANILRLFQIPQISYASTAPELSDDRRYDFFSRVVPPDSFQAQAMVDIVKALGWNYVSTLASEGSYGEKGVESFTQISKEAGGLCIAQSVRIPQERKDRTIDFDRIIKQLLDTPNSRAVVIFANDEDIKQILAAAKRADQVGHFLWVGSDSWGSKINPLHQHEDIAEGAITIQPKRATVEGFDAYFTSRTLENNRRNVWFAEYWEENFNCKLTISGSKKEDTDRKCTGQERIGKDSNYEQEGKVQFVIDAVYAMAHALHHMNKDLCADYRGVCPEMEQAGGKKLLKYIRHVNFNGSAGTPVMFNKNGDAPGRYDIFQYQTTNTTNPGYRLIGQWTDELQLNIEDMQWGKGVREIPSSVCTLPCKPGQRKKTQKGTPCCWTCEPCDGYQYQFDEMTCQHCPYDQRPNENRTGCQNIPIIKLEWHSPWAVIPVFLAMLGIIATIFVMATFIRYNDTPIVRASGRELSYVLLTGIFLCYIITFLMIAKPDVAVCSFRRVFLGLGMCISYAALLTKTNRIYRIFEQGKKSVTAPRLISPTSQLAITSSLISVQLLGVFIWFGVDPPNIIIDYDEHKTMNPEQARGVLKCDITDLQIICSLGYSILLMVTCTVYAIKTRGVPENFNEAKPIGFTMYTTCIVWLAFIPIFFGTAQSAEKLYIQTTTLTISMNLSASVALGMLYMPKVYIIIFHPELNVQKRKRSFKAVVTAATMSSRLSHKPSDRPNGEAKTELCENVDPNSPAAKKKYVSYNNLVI

EC50 [1]: 340 nM
EC50 [2]: > 30000 nM
Structure (SMILES): COc1cc(C(F)(F)F)cc2c(N3CCN4c5ccccc5OC[C@H]4C3)c(C#N)nnc12

EC50 [1]: 260 nM
EC50 [2]: > 30000 nM
Structure (SMILES): COc1cc(F)cc2c(N3CCN4c5ccccc5OC[C@@H]4C3)c(C#N)nnc12

EC50 [1]: > 30000 nM
EC50 [2]: > 30000 nM
Structure (SMILES): COc1cc(C(F)(F)F)cc2c(N3CCN4c5ccccc5OC[C@@H]4C3)c(C#N)nnc12

EC50 [1]: 43 nM
EC50 [2]: 190 nM
pEC50 [2]: 6.72
Activity (Rattus norvegicus [4]): 68%
Structure (SMILES): COc1cc(F)cc2c(N3CCN4c5ccccc5OC[C@H]4C3)c(C#N)nnc12

EC50 [2]: 120 nM
Activity (Rattus norvegicus [4]): 48%
Structure (SMILES): COc1cc(F)cc2c(N3CCN4c5c(F)cccc5OCC4C3)c(C#N)nnc12 (stereo not given)

fraction unbound [7]: 0.3
EC50 [9]: > 30000 nM
EC50 [10]: > 30000 nM
EC50 [11]: > 30000 nM
EC50 [12]: > 30000 nM
Fu [13]: 0.024
Activity (Rattus norvegicus [3]): inactive
EC50 [14]: > 30000 nM
EC50 [16]: > 30000 nM
fraction unbound [17]: 0.01
inhibition [18]: 95%
fraction unbound [19]: 0.08
Structure (SMILES): COc1cc(F)cc2c(N3CCN4c5c(F)cccc5OC[C@@H]4C3)c(C#N)nnc12
Activity (Mus musculus [6]): inactive
Activity (Mus musculus [8]): inactive
Activity (Mus musculus [15]): inactive

Second part, the molecule before the results:

Structure (SMILES): COc1ccccc1N1CCN(c2c(C#N)nnc3c(OC)cc(F)cc23)CC1
EC50 [1]: 820 nM
Activity (Rattus norvegicus [3]): inactive

Structure (SMILES): COc1cc(F)cc2c(N3CCN4c5ccccc5NCC4C3)c(C#N)nnc12 (stereo not given)
EC50 [1]: 120 nM
EC50 [2]: 620 nM
pEC50 [2]: 6.21
Activity (Rattus norvegicus [4]): 68%

Structure (SMILES): COc1cc(F)cc2c(N3CCN4c5ccccc5NC(=O)C4C3)c(C#N)nnc12 (stereo not given)
EC50 [1]: 1200 nM
EC50 [2]: > 30000 nM

Structure (SMILES): COC(=O)c1ccc(-n2c(C)cc(C(=O)CSc3ccc(NC(C)=O)cc3)c2C)cc1
EC50 [5]: 900 nM

Structure (SMILES): COc1cc(F)cc2c(N3CCN(c4ccccc4OC4CC4)CC3)c(C#N)nnc12
EC50 [1]: 310 nM
Activity (Rattus norvegicus [3]): inactive

Structure (SMILES): COc1cc(F)cc2c(N3CCN(c4ccccc4F)CC3)c(C#N)nnc12
EC50 [1]: 360 nM
K(p,uu,brain) [20]: 1.9

Structure (SMILES): COc1cc(F)cc2c(N3CCN(c4ccccc4OC(C)C)CC3)c(C#N)nnc12
EC50 [1]: 260 nM
Activity (Rattus norvegicus [3]): inactive

Structure (SMILES): [2H]C([2H])([2H])Oc1cc(F)cc2c(N3CCN(c4ccccc4F)CC3)c(C#N)cnc12
EC50 [21]: > 10000 nM
Kp uu ([20]; read-out: K(p,uu,brain)): 0.9
EC50 [5]: > 10000 nM
EC50 [22]: > 10000 nM
EC50 [23]: > 10000 nM
EC50 [24]: > 10000 nM
